What all share (assay): Measurement of antifungal activity (minimum inhibitory concentration), agar dilution
Holding throughout (format): cell-based
For orientation: In agar dilution, organisms are placed on agar that contains the substance at set levels.

The test system of one test is T. rubrum IF05808. Conditions: Sabouraud's agar, one week at 27° C.; for MIC: Trichophyton rubrum, 168 h, read-out: MIC value (minimum compound concentration that definitely inhibited any visible growth). Here is the method: (§1) Measurement of Antifungal Activity (Measurement of Minimum Inhibitory Concentration)
(§2) Antifungal activity of representative compounds of the present invention against dermatophytes was investigated.
(§3) Briefly, strains of dermatophytes to be tested were grown on slant media prepared with Sabouraud's agar (product of Nissuiseiyaku; pepton 1.0%, glucose 4.0%, agar 1.5%, pH 5.9) at 27° C. for two weeks, so as to allow sufficient production of conidiospores. Subsequently, sterilized saline solution containing 0.05% (wt/vol) TWEEN 80 was added thereto, and while the surface of the each medium was scraped with a platinum loop, the conidiospores were deaggregated and suspended in the saline solution. The suspension was filtered through a double face sterilized gauze sheet so as to remove agar and hypha pellets. The filtrate was diluted with a saline solution so as to make the concentration of the conidiospores decrease to 10^6/ml by use of a cytometer, and the resultant dilute filtrate served as a test dermatophytes solution. Meanwhile, a stock solution was prepared by adding 1 ml of dimethylsulfoxide to 10 mg of a compound to be tested. An aliquot (500 μl) of the stock solution was combined with dimethylsulfoxide (500 μl), to thereby prepare a 2-fold dilute solution. Dilution was similarly repeated until 13 different dilute solutions ranging from 10 to 0.0025 mg/ml (concentrations of the ultimate test system: 100-0.025 μg/ml) were obtained. 100 μl each of the diluted solutions of the test compound was dispensed into the sterilized petri dish. A Sabouraud's agar (pepton 1.0%, glucose 4.0%, agar 1.5%, pH 5.9; 10 ml), which had been sterilized and dissolved, was added thereto, and the mixture was thoroughly mixed and solidified. Next, the above-prepared test dermatophytes solution was planted in amounts of 5 μl by use of a microplanter.

Test [1] deals with T. mentagrophytes IF05811. The following applies: Sabouraud's agar, one week at 27° C.; for MIC: Trichophyton mentagrophytes, 168 h, read-out: MIC value (minimum compound concentration that definitely inhibited any visible growth). Here is the method:
as §1, §2, §3

In a further test the test system is T. rubrum IF09185. The following applies: Sabouraud's agar, one week at 27° C.; for MIC: Trichophyton rubrum, 168 h, read-out: MIC value (minimum compound concentration that definitely inhibited any visible growth). The method, then:
as §1, §2, §3

The next test relates to M. canis TIMM0760. Conditions: Sabouraud's agar, one week at 27° C.; for MIC: Microsporum canis, 168 h, read-out: MIC value (minimum compound concentration that definitely inhibited any visible growth). The method, then:
as §1, §2, §3

Test [2] concerns T. mentagrophytes TIMM1189. The following applies: Sabouraud's agar, one week at 27° C.; for MIC: Trichophyton mentagrophytes, 168 h, read-out: MIC value (minimum compound concentration that definitely inhibited any visible growth). The method, then:
as §1, §2, §3

For the next test, the system named is M. gypseum IF08231. The following applies: Sabouraud's agar, one week at 27° C.; for MIC: Nannizzia gypsea, 168 h, read-out: MIC value (minimum compound concentration that definitely inhibited any visible growth). Here is the method: as §1, §2, §3
For test [3], the system named is T. mentagrophytes IF07552. The following applies: Sabouraud's agar, one week at 27° C.; for MIC: Trichophyton mentagrophytes, 168 h, read-out: MIC value (minimum compound concentration that definitely inhibited any visible growth). Here is the method:
as §1, §2, §3

The subject of test [4] is T. mentagrophytes TIMM1177. The following applies: Sabouraud's agar, one week at 27° C.; for MIC: Trichophyton mentagrophytes, 168 h, read-out: MIC value (minimum compound concentration that definitely inhibited any visible growth). The method, then: as §1, §2, §3
Another test has as its system T. violaceum TIMM1264. The following applies: Sabouraud's agar, one week at 27° C.; for MIC: Trichophyton violaceum, 168 h, read-out: MIC value (minimum compound concentration that definitely inhibited any visible growth). The method, then: as §1, §2, §3

Like-named read-outs stand apart in the source and are kept apart here.

As to `C/C=C(/C)c1cccc(CN(C)Cc2ccc(C(C)(C)C)cc2)c1.Cl` [Compound 97, cis-N-(4-tert-Butylbenzyl)-N-methyl-[3-(1-methyl-1-propenyl)benzyl]amine Hydrochloride], the “MIC value (minimum compound concentration that definitely inhibited any visible growth)” value with T. rubrum IF05808 came to 1.56 µg/mL; in test [1], 1.56 µg/mL; against T. rubrum IF09185, 0.78 µg/mL; in the test with M. canis TIMM0760 it was 0.39 µg/mL; in [2], 0.78 µg/mL; against M. gypseum IF08231 (M. gypseum IF08231 (Table 2)), 3.12 µg/mL. Also, the “MIC value (minimum compound concentration that definitely inhibited any visible growth)” value in [3] was determined as 3.12 µg/mL; in test [4], 1.56 µg/mL; in the test on T. violaceum TIMM1264 it was 1.56 µg/mL.

In the case of `C=C(C)c1ccccc1CN(C)C/C=C/C#CC(C)(C)C.Cl` [Compound 39, trans-N-(6,6-Dimethyl-2-hepten-4-ynyl)-N-methyl-(2-isopropenylbenzyl)amine Hydrochloride], the MIC in the test on T. rubrum IF05808 turned out to be 3.12 µg/mL; in test [1], 6.25 µg/mL; in the test with T. rubrum IF09185, 3.12 µg/mL; in the test with M. canis TIMM0760, 6.25 µg/mL; in test [2] it was 6.25 µg/mL; with M. gypseum IF08231 (H. gypseum IF08231 (Table 1)), 12.5 µg/mL. Moreover, the MIC in test [3] worked out at 6.25 µg/mL; in test [4], 6.25 µg/mL; in the test on T. violaceum TIMM1264, 12.5 µg/mL.

For `C=C(C)c1cccc(CN(C)CC=Cc2ccccc2)c1.Cl` [Compound 48, N-Cinnamyl-N-methyl-(3-isopropenylbenzyl)amine Hydrochloride], the MIC in the test on T. rubrum IF05808 amounted to 1.56 µg/mL; in test [1], 6.25 µg/mL; in the test with T. rubrum IF09185, 1.56 µg/mL; in the test on M. canis TIMM0760, 1.56 µg/mL; in test [2] it was 6.25 µg/mL; with M. gypseum IF08231 (H. gypseum IF08231 (Table 1)) it was 6.25 µg/mL. Further, the MIC in [3] amounted to 3.12 µg/mL; in [4] it was 6.25 µg/mL; in the test on T. violaceum TIMM1264 it was 6.25 µg/mL.

As to `C=C(C)c1cccc(CN(CC)C/C=C/C#CC(C)(C)C)c1.Cl` [Compound 45, trans-N-(6,6-Dimethyl-2-hepten-4-ynyl)-N-ethyl-(3-isopropenylbenzyl)amine Hydrochloride], the MIC turned out to be 0.39 µg/mL in the test on T. rubrum IF05808; 0.39 µg/mL in test [1]; 0.39 µg/mL with T. rubrum IF09185; 0.2 µg/mL with M. canis TIMM0760; 0.39 µg/mL in [2]; 0.39 µg/mL in the test on M. gypseum IF08231 (H. gypseum IF08231 (Table 1)). Also, the MIC (in test [3]; in test [4]; in the test on T. violaceum TIMM1264) was 0.39 µg/mL in each case.

Regarding `C=C(C)c1ccccc1CN(C)Cc1ccc(C(C)(C)C)cc1.Cl` [Compound 108, N-(4-tert-Butylbenzyl)-N-methyl-(2-isopropenylbenzyl)amine Hydrochloride], the MIC in the test on T. rubrum IF05808 was 0.78 µg/mL; in [1], 1.56 µg/mL; with T. rubrum IF09185, 0.78 µg/mL; in the test on M. canis TIMM0760 it was 1.56 µg/mL; in test [2] it was 1.56 µg/mL; with M. gypseum IF08231 (M. gypseum IF08231 (Table 2)), 1.56 µg/mL. Moreover, the results for the MIC (in test [3]; in test [4]; in the test on T. violaceum TIMM1264) were 1.56 µg/mL, 3.12 µg/mL and 3.12 µg/mL, respectively.

Take `C=C(C)c1cccc(CN(C)C/C=C/C#CC(C)(C)C)c1C.Cl` [Compound 52, trans-N-(6,6-Dimethyl-2-hepten-4-ynyl)-N-methyl-(3-isopropenyl-2-methylbenzyl)amine Hydrochloride]: the MIC in the test on T. rubrum IF05808 was found to be 12.5 µg/mL; in test [1], 12.5 µg/mL; in the test on T. rubrum IF09185, 12.5 µg/mL; in [2], 12.5 µg/mL; in the test on M. gypseum IF08231 (H. gypseum IF08231 (Table 1)), 3.12 µg/mL; in test [3], 12.5 µg/mL. Besides, the MIC (in [4]; in the test with T. violaceum TIMM1264) was 12.5 µg/mL in each case.

Turning to `C=C(C)c1cc(C)cc(CN(C)Cc2ccc(C(C)(C)C)cc2)c1.Cl` [Compound 88, N-(4-tert-Butylbenzyl)-N-methyl-(3-isopropenyl-5-methylbenzyl)amine hydrochloride], the MIC was found to be 0.05 µg/mL in the test on T. rubrum IF05808; 0.1 µg/mL in test [1]; 0.05 µg/mL with T. rubrum IF09185; 0.05 µg/mL with M. canis TIMM0760; 0.05 µg/mL in [2]; 0.1 µg/mL in the test with M. gypseum IF08231 (M. gypseum IF08231 (Table 2)). Also, the MIC was 0.05 µg/mL in [3], 0.1 µg/mL in [4] and 0.1 µg/mL in the test on T. violaceum TIMM1264.

For `C=Cc1cccc(CN(C)C/C=C/C#CC(C)(C)C)c1.Cl` [Compound 10, trans-N-(6,6-Dimethyl-2-hepten-4-ynyl)-N-methyl-(3-vinylbenzyl)amine Hydrochloride], the MIC in the test on T. rubrum IF05808 worked out at 0.39 µg/mL; in test [1], 0.39 µg/mL; in the test on T. rubrum IF09185, 0.39 µg/mL; in the test on M. canis TIMM0760, 0.2 µg/mL; in [2], 0.39 µg/mL; in the test with M. gypseum IF08231 (H. gypseum IF08231 (Table 1)), 0.78 µg/mL. The MIC in test [3] worked out at 0.39 µg/mL; in [4], 0.39 µg/mL; in the test with T. violaceum TIMM1264, 0.78 µg/mL.

Take `CC(C)=Cc1cccc(CN(C)C/C=C/C#CC(C)(C)C)c1.Cl` [Compound 12, trans-N-(6,6-Dimethyl-2-hepten-4-ynyl)-N-methyl-[3-(2-methyl-1-propenyl)benzyl]amine Hydrochloride]: the MIC in the test with T. rubrum IF05808 is 0.39 µg/mL; in test [1], 0.39 µg/mL; with T. rubrum IF09185, 0.2 µg/mL; in the test with M. canis TIMM0760 it was 0.2 µg/mL; in [2] it was 0.39 µg/mL; in the test with M. gypseum IF08231 (H. gypseum IF08231 (Table 1)), 0.78 µg/mL. In addition, the MIC in test [3] amounted to 0.39 µg/mL; in test [4], 0.78 µg/mL; in the test on T. violaceum TIMM1264, 0.39 µg/mL.

For the compound `C=Cc1cccc(CN(C)Cc2ccc(C(C)(C)C)cc2)c1.Cl` [Compound 81, N-(4-tert-Butylbenzyl)-N-methyl-(3-vinylbenzyl)amine Hydrochloride], the MIC in the test with T. rubrum IF05808 was determined as 0.2 µg/mL; in [1], 0.39 µg/mL; in the test on T. rubrum IF09185, 0.39 µg/mL; with M. canis TIMM0760, 0.2 µg/mL; in test [2], 0.78 µg/mL; with M. gypseum IF08231 (M. gypseum IF08231 (Table 2)), 0.39 µg/mL. Further, the MIC was found to be 0.39 µg/mL in test [3], 0.39 µg/mL in test [4] and 0.78 µg/mL with T. violaceum TIMM1264.

In the case of `C=C(C)c1cccc(CN(C)C/C=C/C#CC(C)(C)C)c1.Cl` [Compound 3, trans-N-(6,6-Dimethyl-2-hepten-4-ynyl)-N-methyl-(3-isopropenylbenzyl)amine Hydrochloride], the MIC in the test with T. rubrum IF05808 was 0.1 µg/mL; in [1], 0.1 µg/mL; in the test with T. rubrum IF09185, 0.1 µg/mL; in the test with M. canis TIMM0760, 0.1 µg/mL; in [2], 0.2 µg/mL; in the test with M. gypseum IF08231 (H. gypseum IF08231 (Table 1)), 0.39 µg/mL. Further, the MIC in [3] is 0.2 µg/mL; in test [4], 0.1 µg/mL; with T. violaceum TIMM1264, 0.1 µg/mL.

For `C=C(C)c1cc(F)cc(CN(C)C/C=C/C#CC(C)(C)C)c1.Cl` [Compound 64, trans-N-(6,6-Dimethyl-2-hepten-4-ynyl)-N-methyl-(3-fluoro-5-isopropenylbenzyl)amine Hydrochloride], the MIC in the test on T. rubrum IF05808 is 0.1 µg/mL; in test [1], 0.1 µg/mL; in the test with T. rubrum IF09185 it was 0.1 µg/mL; in the test with M. canis TIMM0760 it was 0.2 µg/mL; in test [2], 0.1 µg/mL; in the test with M. gypseum IF08231 (H. gypseum IF08231 (Table 1)), 0.39 µg/mL. Also, the MIC in [3] amounted to 0.1 µg/mL; in test [4] it was 0.1 µg/mL; in the test on T. violaceum TIMM1264 it was 0.2 µg/mL.

For the origin of these results see US6586633B1, “Amine derivatives” (Pola Chemical Industries, Inc., priority 2001, dated 2003).
